Type in all cases: in vivo
Experiment [1] deals with Amaranthus retroflexus. As to the kind of experiment: Post-emergence herbicidal activity, AMARE. The settings on record: Application post-emergence, 1000 g/Ha, evaluated after 13 days, scale 0-5. The method, then: (§1) Seeds of a variety of test species were sown in standard soil in pots. After 8 days cultivation (post-emergence) under controlled conditions in a glasshouse (at 24/16° C., day/night; 14 hours light; 65% humidity), the plants were sprayed with an aqueous spray solution derived from the formulation of the technical active ingredient in acetone/water (50:50) solution containing 0.5% Tween 20 (polyoxyethelyene sorbitan monolaurate, CAS RN 9005-64-5). The test plants were then grown in a glasshouse under controlled conditions (at 24/16° C., day/night; 14 hours light; 65% humidity) and watered twice daily. After 13 days, the test was evaluated (5=total damage to plant; 0=no damage to plant).

Experiment [2] has as its system Zea mays. As to the kind of experiment: Pre-emergence herbicidal activity, ZEAMX. The conditions noted are these: Application pre-emergence, 1000 g/Ha, evaluated after 13 days, scale 0-5. The procedure:
as §1, with “After” for “After 8 days”, “for one day (pre-emergence)” for “(post-emergence)”

Experiment [3] concerns Zea mays. Nature of the experiment: Post-emergence herbicidal activity, ZEAMX. The settings on record: Application post-emergence, 1000 g/Ha, evaluated after 13 days, scale 0-5. The procedure: as §1
Experiment [4] deals with Abutilon theophrasti. Nature of the experiment: Post-emergence herbicidal activity, ABUTH. The conditions noted are these: Application post-emergence, 1000 g/Ha, evaluated after 13 days, scale 0-5. The method, then: as §1
The test system of experiment [5] is Echinochloa crus-galli. As to the kind of experiment: Pre-emergence herbicidal activity, ECHCG. The settings on record: Application pre-emergence, 1000 g/Ha, evaluated after 13 days, scale 0-5. The method, then: as §1, with “After” for “After 8 days”, “for one day (pre-emergence)” for “(post-emergence)”
The subject of experiment [6] is Amaranthus retroflexus. Nature of the experiment: Pre-emergence herbicidal activity, AMARE. The conditions noted are these: Application pre-emergence, 1000 g/Ha, evaluated after 13 days, scale 0-5. The procedure:
as §1, with “After” for “After 8 days”, “for one day (pre-emergence)” for “(post-emergence)”

Experiment [7] has as its system Setaria faberi. As to the kind of experiment: Post-emergence herbicidal activity, SETFA. The conditions noted are these: Application post-emergence, 1000 g/Ha, evaluated after 13 days, scale 0-5. The method, then: as §1
Experiment [8] has as its system Abutilon theophrasti. As to the kind of experiment: Pre-emergence herbicidal activity, ABUTH. The conditions noted are these: Application pre-emergence, 1000 g/Ha, evaluated after 13 days, scale 0-5. The procedure: as §1, with “After” for “After 8 days”, “for one day (pre-emergence)” for “(post-emergence)”
Experiment [9] relates to Setaria faberi. Nature of the experiment: Pre-emergence herbicidal activity, SETFA. The settings on record: Application pre-emergence, 1000 g/Ha, evaluated after 13 days, scale 0-5. The method, then:
as §1, with “After” for “After 8 days”, “for one day (pre-emergence)” for “(post-emergence)”

In experiment [10] the test system is Echinochloa crus-galli. Nature of the experiment: Post-emergence herbicidal activity, ECHCG. The settings on record: Application post-emergence, 1000 g/Ha, evaluated after 13 days, scale 0-5. The procedure: as §1

As to `CN1CC(O)N(c2cc(C(F)(F)F)c(-c3ccncc3C#N)cn2)C1=O` (stereo not drawn) [Compound A29], the AMARE damage score in the experiment with Amaranthus retroflexus [1] and with Amaranthus retroflexus [6] was 5 in each case. Also, the values for the ZEAMX damage score in the experiment on Zea mays [2] and with Zea mays [3] were 3 and 4, respectively. The ABUTH damage score in the experiment on Abutilon theophrasti [4] and in the experiment on Abutilon theophrasti [8] was 5 in each case. Besides, the ECHCG damage score with Echinochloa crus-galli [5] and in the experiment with Echinochloa crus-galli [10] was 5 each time. Moreover, the SETFA damage score with Setaria faberi [7] and in the experiment with Setaria faberi [9] was 5 throughout.

Regarding `COc1cc(-c2cnc(N3C(=O)N(C)CC3O)cc2C(F)(F)F)ccn1` (stereo not drawn) [Compound A24], the AMARE damage score in the experiment with Amaranthus retroflexus [1] and in the experiment with Amaranthus retroflexus [6] was 5 in each case. The ZEAMX damage score is listed as 2 in the experiment with Zea mays [2] and 5 in the experiment with Zea mays [3]. In addition, the ABUTH damage score with Abutilon theophrasti [4] and in the experiment on Abutilon theophrasti [8] was 5 throughout. In addition, the ECHCG damage score in the experiment on Echinochloa crus-galli [5] and with Echinochloa crus-galli [10] was 5 in each case. Also, the SETFA damage score in the experiment with Setaria faberi [7] and in the experiment on Setaria faberi [9] was 5 throughout.

`CN1CC(O)N(c2cc(C(F)F)c(Cl)cn2)C1=O` (stereo not drawn) [Compound A47]: the ZEAMX damage score in the experiment with Zea mays [2] is on record as 0. The ECHCG damage score with Echinochloa crus-galli [5] and with Echinochloa crus-galli [10] was 4 in each case. In addition, the AMARE damage score in the experiment with Amaranthus retroflexus [6] was found to be 4. In the experiment on Abutilon theophrasti [8], this compound yielded an ABUTH damage score of 4. Besides, in the experiment on Setaria faberi [9], the SETFA damage score was 4.

`CN1CC(O)N(c2cc(C(F)(F)Cl)ccn2)C1=O` (stereo not drawn) [Compound A46] returned a ZEAMX damage score in the experiment on Zea mays [2] of 2. The results for the ECHCG damage score in the experiment on Echinochloa crus-galli [5] and with Echinochloa crus-galli [10] were 4 and 5, respectively. The compound further showed an AMARE damage score in the experiment with Amaranthus retroflexus [6] of 5. In the experiment on Abutilon theophrasti [8], this compound registered an ABUTH damage score of 5. The same compound showed an SETFA damage score with Setaria faberi [9] of 5.

For `CC(=O)Nc1ccccc1-c1cnc(N2C(=O)N(C)CC2O)cc1C(F)(F)F` (stereo not drawn) [Compound A35], the AMARE damage score with Amaranthus retroflexus [1] and with Amaranthus retroflexus [6] was 5 throughout. In addition, the ZEAMX damage score in the experiment on Zea mays [2] and in the experiment on Zea mays [3] was 1 throughout. For the same compound, the ABUTH damage score in the experiment on Abutilon theophrasti [4] is recorded as 5; in the experiment on Abutilon theophrasti [8], 2. The ECHCG damage score in the experiment with Echinochloa crus-galli [5] was found to be 2; in the experiment on Echinochloa crus-galli [10], 4. In addition, the SETFA damage score turned out to be 4 in the experiment on Setaria faberi [7] and 2 in the experiment with Setaria faberi [9].

With `CN1CC(O)N(c2cc(C(F)(F)F)c(-c3ccc(Cl)nc3)cn2)C1=O` (stereo not drawn) [Compound A21], the AMARE damage score with Amaranthus retroflexus [1] and in the experiment on Amaranthus retroflexus [6] was 5 in each case. The results for the ZEAMX damage score with Zea mays [2] and in the experiment on Zea mays [3] were 3 and 5, respectively. The ABUTH damage score with Abutilon theophrasti [4] and with Abutilon theophrasti [8] was 5 in each case. The ECHCG damage score in the experiment on Echinochloa crus-galli [5] and with Echinochloa crus-galli [10] was 5 each time. The SETFA damage score with Setaria faberi [7] and in the experiment on Setaria faberi [9] was 5 in each case.

Turning to `CCOC(=O)c1cncc(-c2cnc(N3C(=O)N(C)CC3O)cc2C(F)(F)F)c1` (stereo not drawn) [Compound A34], the AMARE damage score in the experiment with Amaranthus retroflexus [1] and in the experiment with Amaranthus retroflexus [6] was 5 each time. The ZEAMX damage score amounted to 1 in the experiment on Zea mays [2] and 3 in the experiment on Zea mays [3]. Also, the ABUTH damage score in the experiment with Abutilon theophrasti [4] and in the experiment on Abutilon theophrasti [8] was 5 in each case. In addition, the ECHCG damage score in the experiment with Echinochloa crus-galli [5] was 4; with Echinochloa crus-galli [10], 5. Moreover, the values for the SETFA damage score in the experiment on Setaria faberi [7] and in the experiment with Setaria faberi [9] were 5 and 3, respectively.

With `CN1CC(O)N(c2cc(Cl)c(C(=O)NC(C)(C)C)cn2)C1=O` (stereo not drawn) [Compound A45], the AMARE damage score in the experiment on Amaranthus retroflexus [1] and in the experiment with Amaranthus retroflexus [6] was 5 in each case. The values for the ZEAMX damage score in the experiment on Zea mays [2] and in the experiment with Zea mays [3] were 3 and 5, respectively. Further, the ABUTH damage score in the experiment with Abutilon theophrasti [4] and in the experiment with Abutilon theophrasti [8] was 5 throughout. Also, the ECHCG damage score in the experiment on Echinochloa crus-galli [5] and in the experiment on Echinochloa crus-galli [10] was 5 each time. Further, the SETFA damage score in the experiment on Setaria faberi [7] and in the experiment on Setaria faberi [9] was 5 throughout.

The record behind these values is patent US20160251332A1, “Herbicidal Compounds” (SYNGENTA PARTICIPATIONS AG, priority 2013, published 2016).
